In assay [1] the test system is E. faecalis MMH594. Put plainly: MIC assay, E. faecalis in vitro. The settings on record: Enterococcus faecalis; E. faecalis MMH594 in 20% BHI, 80% M9, 37° C., 15 hours, scored by eye. It counts as cell-based. Here is the method:
A culture of E. faecalis MMH594 was grown overnight in BHI broth to stationary phase at 37° C. with aeration. The culture was diluted to an approximate density of […] in worm infection media (20% BHI, 80% M9 buffer). 12.5 μl of the bacterial culture dilution was inoculated into 384-well plates containing 12.5 μl of 2-fold serial dilutions of a test compound. […] Plates were incubated at 37° C. for 15 hours and scored by eye for bacterial growth.

Assay [2] has as its system C. elegans infected with E. faecalis. The experiment in a line: Dose response time courses in the C. elegans-E. faecalis infection assay. It counts as in vivo, Caenorhabditis elegans. Particulars: Effective Concentration: survival significantly different from mock-treated, p-value <0.05, logrank; read-out: EC. The method, then: (§1) glp-4(bn2); sek-1 (km4) mutant worms were grown to gravid adult stage. 1,000 worms at the L1 stage were grown for 5.2 days at 15° C. on 9-cm plates of SK agar media spread with a lawn of E. coli strain HB101. Embryos from the gravid adults were isolated by a previously described hypochlorite method (see Tan et al., (1999) Proc. Natl. Acad. Sci. USA 96, 715-720) and hatched at 15° C. for 2 days. Approximately 4,500 of the Ll hatchlings were grown on each 9-cm plate of SK-NS agar (SK media with 62.5 U/ml nystatin and 100 μg/ml streptomycin) and with lawns of E. coli HB101. These worms were grown at 25° C. for 52 hours to generate sterile, young adults.
(§2) A culture of E. faecalis MMH594 was grown in BHI broth (BD Difco) with 80 μg/ml kanamycin at 37° C. for 6 hours and 100 μl of the culture were spread onto each 9-cm plate of BHI agar containing 80 μg/mlkanamycin. Lawns of E. faecalis were grown at 25° C. for 16 hours and transferred to 15° C. for 8 hours.
(§3) Sterile adult worms were resuspended in M9 buffer and washed twice with M9 in a 1:10 ratio to remove E. coli. 8,000 worms were pipetted onto each lawn of E. faecalis and incubated 15 hours at 15° C. After infection, the worms were resuspended in M9 and used as described below. 384-well plates (Corning #3712) were filled with 55 μl media (see below) using a Thermo Scientific MULTIDROP Combi reagent dispenser. 0.3 μl of a candidate compound in DSMO were pin transferred into each well using a CyBio CYBI-Well vario transfer system. The plates were agitated using an Eppendorf MIXMATE at 1,800 rpm for 15 seconds. Using the Union Biometrica Complex Object Parametric Analyzer and Sorter (COPAS) BIOSORT worm sorter according to manufacturer's protocols, 15 of the infected worms were transferred to each well in a total volume of approximately 15 μl. Total volume per well is 70 μl/well with a final composition of the media being 20% BHI, […], 80 μg/ml kanamycin, 62.5 U/ml nystatin, 1% DMSO, and 19% sheath solution (Union Biometrica Part #300-5101-000). Plates were vortexed for 5 seconds, centrifuged at 1000×g for 10 seconds, and sealed with gas permeable membranes (BREATHEASY Diversified). Plates were placed in a single layer on the top shelves in a 26.3° C. incubator at 85% relative humidity (RH) and incubated without agitation for 5 days.
The dose dependence of certain antimicrobial compounds identified by the assay above were studied. These compounds were purchased in a larger amount from commercial sources. For each of these compounds, an infection assay was performed essentially as described above at different concentrations except that SYTOX staining was not used. Instead, bright-field images of the wells were acquired at daily time points and scored manually for worm survival by analyzing worm body positioning. […] All compounds used in this assays were confirmed for their identity and purity by liquid chromatography/mass spectrometry.

In assay [3] the test system is E. faecalis strain MMH594. Put plainly: Antimicrobial (bacterial killing) assay. The format is cell-based, Enterococcus faecalis. The settings on record: mM concentrations, 1 to 30 minutes, room temperature. Here is the method:
Compounds 6, 7, 15 were purchased from TimTec and ChemDiv, dissolved in DMSO at a concentration of 5 or 10 mg/ml, and further diluted in DMSO as indicated. E. faecalis strain MMH594 was grown overnight with aeration at 37° C. in Bacto brain heart infusion (BHI) broth (Becton Dickinson), transferred to ice, and washed in phosphate-buffered saline (PBS; pH 7.2). Equal volumes of a dissolved compound and bacteria were mixed, incubated at room temperature for 1 to 30 minutes, ten-fold serially diluted in PBS, and plated in […] droplets on BHI agar plates. Plates were incubated at room temperature until colonies were visible.

Assay [4] deals with MRSA infection in Caenorhabditis elegans. The experiment in a line: MRSA infection assay in C. elegans (liquid). It counts as in vivo. The settings on record: 5 days. From the text:
To screen/test candidate compounds for their efficacy against Methicillin-resistant Staphylococcus aureus (MRSA) using Caenorhabditis elegans (C. elegans), a liquid high throughput screening assay was developed. In contrast to the Enterococcus faecalis infection assay, where worms are pre-infected with E. faecalis on agar prior to the start of the screening assay and then infected worms are transferred to microtiter plates using the COPAS BioSort robot, the infection of worms with MRSA occurred directly in the liquid medium. This liquid infection protocol with MRSA was developed because the COPAS BioSort, the large particle sorter used to dispense worms into multiwell plates, is a pressurized system that can generate aerosols. Because MRSA is a potentially dangerous pathogen for immune competent individuals, sorting MRSA-infected worms in the COPAS BioSort was deemed to be potentially hazardous.
The MRSA infection assay was carried out by incubating C. elegans with three MRSA strains (i.e., USA100, USA400 and MW2) in 96 or 384-well microtiter plates and assessing whether worms were live or dead after a 5 day incubation.
The MRSA infection assay was performed as follows: Worms were grown on agar using non-pathogenic E. coli as a food source until they reached the L4/young adult stage. A small volume of M9 buffer was added to the agar plates to float worms gently off the food source. The worms were then transferred into a large conical tube and washed 2 times by allowing worms to settle, aspirating the supernatant and adding fresh M9 buffer. 15 worms were then transferred using a COPAS BioSort large particle sorter into a 96-well plate containing […] of M9. […] After the worms were stained for 18 hours, images of the plates were acquired in bright field and red fluorescence channels using a Molecular Devices Discovery-1 or ImageXpress automated microscopy system. The total number of worms was counted in the bright field image and the number of dead animals are determined by positive SYTOX staining. […]

Assay [5] has as its system C. elegans infected with E. faecalis. Put plainly: Automated infection assay for primary compound screening (SYTOX staining, CELLPROFILER). The format is in vivo, Caenorhabditis elegans. The method, then:
In general, the area of each well that is SYTOX-positive in the fluorescence image is measured and normalized by the total area occupied by all worms, which is quantified in the bright field image. This typically requires illumination correction to flatten lighting abnormalities, adaptive thresholding, and size- and contrast-based filters and masks to exclude debris and other artifacts. By calculating the ratio of the fluorescent area (which corresponds to the area occupied by dead worms) to the total area occupied by all worms, one can accurately determine the number of dead worms in each well. […] In a well where the worms are rescued by ampicillin treatment, 3 of the 14 worms were dead based on manual scoring. The ratio of the fluorescent area to the area occupied by all worms obtained by the CELLPROFILER analysis is correspondingly low at 0.12.
as §1, §2, §3
After 5 days, the bacteria and liquid media in the assay plates were removed as described below. First, the bacteria were re-suspended by shaking on the MIXMATE for 15 seconds at 1,800 rpm, the sealing membrane was removed, and the worms were allowed to settle to the bottom of the wells for 3 minutes. […]

This note sets out measurements from US9241928B2, “Antimicrobial compounds” (The General Hospital Corporation, priority 2009, dated 2016).

Converted amounts (≈) assume the structure as drawn. Bounds are passed on as bounds.

As usually defined, the MIC is the lowest concentration that inhibits growth of the organism. Lower therefore signals inhibition by little substance. As to `O=C(CCSCc1ccc(Cl)cc1)N1CCN(c2ccccc2)CC1` [Compound 7], in assay [1], the MIC is greater than 100 µg/mL. The minimal effective concentration in assay [2] was determined as 25 µg/mL. Moreover, the “bactericidal activity (FIGS. 7A and 7B)” value in assay [3] is “did not show any bactericidal activity”.
As for `Oc1c(C(Nc2ccccn2)c2ccccn2)cc(Cl)c2cccnc12` (stereo not shown) [Compound 3], the minimal inhibitory concentration (MIC) in assay [1] worked out at 12.5 µg/mL (≈ 34.5 µM). Moreover, in assay [2], the minimal effective concentration came to 3.13 µg/mL. In addition, the “survival of MRSA-infected worms (FIG. 4)” value in assay [4] (6.25 and 12.5 μg/ml) was “resulted in survival of MRSA-infected worms”.
In the case of `CSc1ccc(-c2cccs2)nn1` [Compound 8], the MIC in assay [1] is greater than 100 µg/mL. Besides, in assay [2], the minimal effective concentration was found to be 3.13 µg/mL.
Molecule `Oc1c(C(Nc2ccccn2)c2ccccc2F)cc(Cl)c2cccnc12` (stereo not shown) [Compound 1] yielded an MIC in assay [1] of 12.5 µg/mL (≈ 32.9 µM). In addition, the minimal effective concentration in assay [2] came out at 0.78 µg/mL.
For the molecule `CC1(C)S[C@@H]2[C@H](NC(=O)[C@H](N)c3ccccc3)C(=O)N2[C@H]1C(=O)O` [ampicillin], in assay [5] (ampicillin-treated wells, 21 μg/ml), the “z-score, screen average” value is given as −8.70. Also, the “dead worms based on manual scoring” value in assay [5] (of 14 worms in the well, ampicillin treatment) was found to be 3. Further, the “ratio of the fluorescent area to the area occupied by all worms (CELLPROFILER)” value in assay [5] (well where worms are rescued by ampicillin treatment) is 0.12.
`Oc1c(C(Nc2ccccn2)c2cccc(F)c2)cc(Cl)c2cccnc12` (stereo not shown) [Compound 2] had a minimal inhibitory concentration (MIC) in assay [1] of 25 µg/mL (≈ 65.8 µM). Besides, the minimal effective concentration in assay [2] came to 1.56 µg/mL.
For the molecule `CCC(=O)O` [propionic acid, reference compound], in assay [3], the “bactericidal activity (FIGS. 7A and 7B)” value was “did not show any bactericidal activity”.
With `CC(=O)O` [acetic acid, reference compound], the “bactericidal activity (FIGS. 7A and 7B)” value in assay [3] was “did not show any bactericidal activity”.
As to `Cc1c(O)ccc(/C=N/Nc2nc(-c3ccc(Br)cc3)nc3ccccc23)c1O` [Compound 9], the MIC in assay [1] is greater than 100 µg/mL. Moreover, the minimal effective concentration in assay [2] is 3.13 µg/mL. For the same molecule, the “survival of MRSA-infected worms (FIG. 4)” value in assay [4] (25 and 50 μg/ml) was “resulted in survival of MRSA-infected worms”.
In turn, `CC(C)(C)C1=NN(c2nc3ccc(Cl)cc3s2)C(=O)C1` [Compound 4] displayed an MIC in assay [1] of 1.56 µg/mL (≈ 5.07 µM). In addition, the minimal effective concentration in assay [2] amounted to 0.39 µg/mL.
